In patent US11034735B2, “Hybrid peptide, set of hybrid peptides, composition, uses of the hybrid peptide, method for inducing an immune response and kits” (priority 2017, dated 2021):

Experiments:
[1] = tested on: serum of BALB/c mice; assay: Dot-ELISA, synthetic peptides with serum of immunized BALB/c mice; format: in vivo; design: key to Peptide Reactivity, Mice serum inoculated with isolated peptides 1 / Peptide Reactivity, Mice serum inoculated with isolated peptides 2 / Peptide Reactivity, Mice serum inoculated with isolated peptides 3 / Peptide Reactivity, Mice serum inoculated with pool / Peptide Reactivity, Mice serum inoculated with Saline (Negative Control) / Reaction with pool of peptides, Mouse 1 serum / Reaction with pool of peptides, Mouse 2 serum / Reaction with pool of peptides, Mouse 3 serum: — = Did not react; X = Reacted; settings: for Peptide Reactivity, Mice serum inoculated with pool / Peptide Reactivity, Mice serum inoculated with isolated peptides 1 / Peptide Reactivity, Mice serum inoculated with isolated peptides 2 / Peptide Reactivity, Mice serum inoculated with isolated peptides 3 / Peptide Reactivity, Mice serum inoculated with Saline (Negative Control) / Reaction with pool of peptides, Mouse 1 serum / Reaction with pool of peptides, Mouse 2 serum / Reaction with pool of peptides, Mouse 3 serum: Dot-ELISA; for Peptide Reactivity, Mice serum inoculated with pool: mice inoculated with pool of all 8 hybrid peptides; for Peptide Reactivity, Mice serum inoculated with isolated peptides 1: serum of mouse 1 inoculated with the same isolated peptide; for Peptide Reactivity, Mice serum inoculated with isolated peptides 1 / Peptide Reactivity, Mice serum inoculated with isolated peptides 2 / Peptide Reactivity, Mice serum inoculated with isolated peptides 3: serum 1:25; for Peptide Reactivity, Mice serum inoculated with isolated peptides 2: serum of mouse 2 inoculated with the same isolated peptide; for Peptide Reactivity, Mice serum inoculated with isolated peptides 3: serum of mouse 3 inoculated with the same isolated peptide; for Peptide Reactivity, Mice serum inoculated with Saline (Negative Control): serum of saline-inoculated mice; for Reaction with pool of peptides, Mouse 1 serum / Reaction with pool of peptides, Mouse 2 serum / Reaction with pool of peptides, Mouse 3 serum: pool of peptides as antigen; for Reaction with pool of peptides, Mouse 1 serum: serum of mouse 1 inoculated with the labelled peptide; for Reaction with pool of peptides, Mouse 2 serum: serum of mouse 2 inoculated with the labelled peptide; for Reaction with pool of peptides, Mouse 3 serum: serum of mouse 3 inoculated with the labelled peptide
Experimental: (§1) The immunogenicity of each peptide was checked immunizing BALB/c mice, approximately six weeks old, with […] of protein (Machado et al., 1994). The mice were divided into groups of three animals each. The groups were: P28, P41, P42, P44, P50, P51, P53, P54, Pool (mice inoculated with a pool of peptides, in the case with all 8 hybrid peptides) and negative control group. For inoculations, the peptides were emulsified in Freund's complete adjuvant (Sigma) and inoculated intramuscularly in the quadriceps. Two further immunizations, on the 14th and 28th day after inoculation, were performed using incomplete Freund's adjuvant (Sigma). Each inoculation was carried out using 10 μg/mL of each peptide. Negative control mice were inoculated with sterile saline in place of the peptides and also emulsified in adjuvant. Blood samples were collected by intracardiac puncture on the 10th day after the last immunization and the sera obtained were stored at −20° C. until evaluated by Dot-ELISA and Western-blotting assays.
(§2) Synthetic peptides were used as antigen in the Dot-ELISA technique to verify their ability to react with specific antibodies present in the serum of BALB/c mice, as well as in calf serum, all immunized. The technique was performed as described by Machado et al. (1994), with minor modifications. Briefly, small nitrocellulose discs were cut using a paper punch and each disc arranged in a flat bottom 24-well culture plate well. 4 μg/mL of each synthetic peptide alone, as well as the peptide pool, were deposited on each disc. The discs were dried at room temperature and then blocked for 12 hours at room temperature with […] TBS buffer (0.1 M Tris, 0.1 M NaCl and 0.5% Tween 20; TBS-Tween 20), plus 5% skim milk powder. Test sera were diluted 1:25 (mice and calf) in TBS-Tween 20 containing 5% skim milk powder and incubated for 120 minutes at room temperature and under constant stirring. Then the discs were subjected to two washes with TBS-Tween 20 plus 5% skim milk powder and one wash with TBS-Tween 20 (5 min interval between each wash). To each mouse serum disc was added the alkaline phosphate-coupled anti-mouse conjugate (anti-mouse IgG goat IgG, Sigma A-3562) diluted 1:30,000 in TBS-Tween 20 plus 5% of skim milk powder. To calf serum-containing discs, it was added alkaline phosphate-coupled anti-bovine conjugate (anti-cattle IgG rabbit IgG, Sigma A-0705) diluted 1:30,000 in TBS-Tween 20, plus 5% skim milk powder. After one hour incubation with the appropriate conjugates, washes were followed as in the previous step.

[2] = tested on: calf serum; assay: Dot-ELISA, synthetic peptides with serum of calf immunized with peptide pool; format: in vivo; design: key to Peptide Reactivity, Calf serum inoculated with pool: — = Did not react; X = Reacted; settings: Dot-ELISA; peptide as antigen; calf inoculated with pool SEQ ID NO: 20, 21, 23, 25, 26
Text: The immunogenicity of the synthetic peptides was verified by immunizing a previously tested calf with negative results for Anaplasma marginale, Babesia bovis and Babesia bigemina by serology and PCR. For inoculations, a peptide pool (SEQ ID NO: 20, SEQ ID NO: 21, SEQ ID NO: 23, SEQ ID NO: 25 and SEQ ID NO: 26) was emulsified in Freund's complete adjuvant (Sigma) and, inoculated intramuscularly in the quadriceps. Two further immunizations, on the 14th and 28th day after inoculation, were performed using incomplete Freund's adjuvant (Sigma). Each inoculation was done using 100 μg/mL of each peptide. Blood samples were collected by jugular puncture on the 10th day after the last immunization and the sera obtained were stored at −20° C. until evaluated by Dot-ELISA and Western-blotting assays.
as §2

[3] = tested on: A. marginale antigen; assay: Indirect immunofluorescence reaction, sera of inoculated mice; format: in vivo; settings: serum 1:25
Experimental: as §1
The prepared A. marginale antigen-containing blood smear slides were removed from the freezer and thawed at room temperature. […] After drying the slides, they were coverslipped using a buffered glycerine at a 9:1 ratio of glycerine/0.5 M carbonate-bicarbonate buffer pH 9.6 and then observed under a fluorescence microscope (Olympus, BX-FLA).

[4] = tested on: mouse serum; assay: Western blotting, synthetic peptides with serum of inoculated mice; settings: in vivo
Experimental: as §1
Samples of synthetic peptides were analyzed by Western blotting. To this end, initially, the samples were submitted to polyacrylamide gel electrophoresis under denaturing conditions, according to the technique recommended by Laemmli (1970). Based on the sample volume 2× concentrated sample buffer (250 mM Tris-HCl pH 6.8, 40% glycerol, 8% SDS, 20% β-mercaptoethanol and 0.008% bromophenol blue) was added. The samples were homogenized, incubated for 5 minutes at 100° C. and applied to the gel. The separation gel was prepared at a concentration of 12% polyacrylamide in buffer (1.875 M Tris, pH 8.8 and 1% SDS) and 5% polyacrylamide for buffer packaging gel (1.875 M Tris, pH 6.8 and 0.5% SDS). Electrophoresis was performed in Tris-Glycine Running Buffer (50 mM Tris, pH 8.6, 1.92 M Glycine and 1% SDS) at 100 V for up to 3 hours and 30 minutes at 0° C. in the Mini-Protean II system (Bio-Rad).
Synthetic peptides processed on the polyacrylamide gel (SDS-PAGE) were transferred to the nitrocellulose membrane for analysis by Wester blot (TOWBIN et al., 1979). The nitrocellulose membrane (Merck) was previously incubated in ice cold transfer buffer (0.58% Tris Base pH 8.3, 20% methanol and 0.29% glycine). For this, the membrane was placed in the “Mini Trans-Blot” (Bio-Rad) electrotransfer system containing the same buffer and the transfer was performed at 100 V for 90 minutes. The membrane was incubated in TBS-Tween (10 mM Tris-HCl pH 7.5; 150 mM NaCl, 0.05% Tween-20) plus 5% skim milk powder for 12 hours at 4° C. under low agitation, for saturation of non-specific binding sites. The membrane was then incubated with each serum from each mouse alone or incubated with calf serum for 2 hours at room temperature under slow stirring. […]

Row | Sequence | Peptide Reactivity, Mice serum inoculated with pool ([1]; peptide as antigen) | Peptide Reactivity, Mice serum inoculated with isolated peptides 1 ([1]; peptide as antigen) | Peptide Reactivity, Mice serum inoculated with isolated peptides 2 ([1]; peptide as antigen) | Peptide Reactivity, Mice serum inoculated with isolated peptides 3 ([1]; peptide as antigen) | Peptide Reactivity, Mice serum inoculated with Saline (Negative Control) ([1]; peptide as antigen) | Reaction with pool of peptides, Mouse 1 serum [1] | Reaction with pool of peptides, Mouse 2 serum [1] | Reaction with pool of peptides, Mouse 3 serum [1] | Peptide Reactivity, Calf serum inoculated with pool [2] | Indirect immunofluorescence reaction for A. marginale, inoculated mice [3] | Dot-ELISA reaction of sera from mice inoculated with hybrid peptides alone ([1]; peptide as antigen) | Western blotting reaction of serum of mice inoculated with synthetic peptide [4]
1 | GASTDDAAAAAKIVAMAYGRGGGGTIVPVKTFDDGALTYFQFYDNNKVIP (Synthetic hybrid peptide) [P50] | — | — | — | — | — | — | — | — | — | positive |  | 
2 | LAESTEGNLEEVWILGKGGGGDELSKKVCGKGTTSGSTNQCG (Synthetic hybrid peptide) [P42] | — | X | — | — | — | — | — | — | — | positive | reacted | reacted
